Here are results for two molecules from patent publication US6645983B1, “Pharmaceutical compositions comprising 4-quinolones for treating cancers” (Laboratoire L. Lafon, priority 1999, dated 2003).

In series [1] the test system is HCT-15.
In series [2] the test system is HCT-15. Nature of the series: cells. As to conditions: Homo sapiens, HCT-15, read-out: concentration that inhibits by 50% (IC50) the in vitro cell growth of the HCT-15 line.
A further series relates to J82. Nature of the series: MTT test, cytotoxic activity on non-clonogenic cell lines. The format is cell-based. The conditions noted are these: Homo sapiens, 10^−5 M, 72 hours of incubation, control condition = 100%, mean value, read-out: mean optical density as percentage of control, J82. Put shortly:
(§1)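 Human bladder cancer lines were seeded at 20 000–50 000 cells/ml and, after 24 h, exposed to compounds at 10^−5 to 10^−10 M against a solvent control. Formazan was dissolved in DMSO and viability was read by spectrophotometric optical density.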
A general note: Tetrazolium assays rely on reduction of a dye to a coloured formazan, in cell work by metabolically active cells.

The subject of a further series is T24. The series is described as above. The format is cell-based. The conditions noted are these: Homo sapiens, T-24; 10^−5 M, 72 hours of incubation, control condition = 100%, mean value; read-out: mean optical density as percentage of control, T24. In short, it runs like this: as §1
In another series the test system is T-47D. The series is described as above. The format is cell-based. As to conditions: Homo sapiens, T47D; 10^−5 M, 72 hours of incubation, control condition = 100%, mean value; read-out: mean optical density as percentage of control, T-47D. Put shortly: (§2)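 Human cancer lines seeded at 20 000–50 000 cells/ml, allowed 24 h to attach, then exposed to compounds at 10^−5 to 10^−10 M versus solvent control.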

Series [3] deals with HCT-15. The series is described as above. The conditions noted are these: Homo sapiens, 10^−5 M, 72 hours of incubation, control condition = 100%, mean value, read-out: mean optical density as percentage of control, HCT-16. It counts as cell-based. In short, it runs like this: as §2
In a further series the test system is U-373MG. Described as above. It counts as cell-based. The conditions noted are these: Homo sapiens, U373 MG; 10^−5 M, 72 hours of incubation, control condition = 100%, mean value; read-out: mean optical density as percentage of control, U-373MG. In short, it runs like this:
as §2

The test system of the next series is U-87MG. The description is as above. The conditions noted are these: Homo sapiens, U-87 MG; 10^−5 M, 72 hours of incubation, control condition = 100%, mean value; read-out: mean optical density as percentage of control, U-87MG. The format is cell-based. Put shortly: as §2
A further series concerns LoVo. The series is described as above. The format is cell-based. The conditions noted are these: Homo sapiens, 10^−5 M, 72 hours of incubation, control condition = 100%, mean value, read-out: mean optical density as percentage of control, LoVo. In short, it runs like this: as §2
For another series, the system named is A-427. Described as above. It counts as cell-based. As to conditions: Homo sapiens, 10^−5 M, 72 hours of incubation, control condition = 100%, mean value, read-out: mean optical density as percentage of control, A-427. In short, it runs like this: as §2
For another series, the system named is PC-3. The series is described as above. The format is cell-based. As to conditions: Homo sapiens, 10^−5 M, 72 hours of incubation, control condition = 100%, mean value, read-out: mean optical density as percentage of control, PC-3. In short, it runs like this:
as §2

The next series has as its system MCF7. The series is described as above. The format is cell-based. The conditions noted are these: Homo sapiens, 10^−5 M, 72 hours of incubation, control condition = 100%, mean value, read-out: mean optical density as percentage of control, MCF7. Put shortly: as §2
In the next series the test system is A549. The series is described as above. As to conditions: Homo sapiens, 10^−5 M, 72 hours of incubation, control condition = 100%, mean value, read-out: mean optical density as percentage of control, A549. The format is cell-based. Put shortly:
as §2

A further series relates to SW1088. Described as above. The format is cell-based. As to conditions: Homo sapiens, 10^−5 M, 72 hours of incubation, control condition = 100%, mean value, read-out: mean optical density as percentage of control, SW1088. Put shortly: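 Human astrocytoma SW1088 cells seeded, grown 24 h at 37° C, 5% CO2, then exposed to compounds at 10^−5 to 10^−10 M versus solvent control. Viability by MTT reduction: 3 h MTT incubation, formazan dissolved in DMSO and read by spectrophotometry.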

Broadly, the inhibition is the share of the control response that was lost under treatment. With `COc1cccc2c1C(=O)c1c(O)c3c(c(O)c1C2=O)C[C@@](O)(C(=O)CO)C[C@@H]3O[C@H]1C[C@H](N)[C@H](O)[C@H](C)O1` [adriamycin, reference compound], the inhibition with HCT-15 [1] is 42.8%. For the same molecule, in the series with HCT-15 [2], the IC50 is 100 nM.

Broadly, the melting point is the temperature, or range, at which the solid turns liquid. As for `COc1ccc(-c2cnc3c(OC)ccc(OC)c3c2OCCN(C)C)cc1` [CRL8370, N-{2-[5,8-Dimethoxy-3-(4-methoxyphenyl)-4-quinolyl]oxy}ethyl-N,N-dimethylamine], the melting point was in the range of 69 to 70 °C. Further, the “amplification compared with the activity of adriamycin alone (gain / activity alone)” value with HCT-15 [1] (10^−5 M compound + 10^−7 M adriamycin, 15.2/42.8) was “about 35%”. For the same molecule, the viability at 10 µM with J82 came out at 102%. Further, the viability at 10 µM in the series with T24 was found to be 74.3%. Further, the viability at 10 µM in the series on T-47D turned out to be 88.5%. Besides, in the series on HCT-15 [3], the viability at 10 µM was determined as 103%. The viability at 10 µM with U-373MG is 105%. In addition, the viability at 10 µM in the series on U-87MG is 104%. For the same molecule, the viability at 10 µM with LoVo was found to be 95.1%. Further, the viability at 10 µM in the series on A-427 came to 76%. Also, the viability at 10 µM in the series with PC-3 is 87.1%. Further, the viability at 10 µM in the series with MCF7 worked out at 88.5%. For the same molecule, in the series on A549, the viability at 10 µM was determined as 85.6%. The viability at 10 µM with SW1088 came out at 99.4%.
